Laboratory results: ChEMBL document CHEMBL4196001, “Design, semisynthesis, α-glucosidase inhibitory, cytotoxic, and antibacterial activities of p-terphenyl derivatives” (Eur J Med Chem, 2018)
Counter-ions that a name gives are not always drawn. Active and inactive are the calls of the source. No cut-off for these calls is given here.

Key:
Alpha glucosidase [1] = biological target: T1, Alpha glucosidase (Homo sapiens, UniProt O43451+P10253+P14410+Q2M2H8); assay: Inhibition of human alpha-glucosidase expressed in Saccharomyces cerevisiae at 10 uM using p-nitrophenyl-alpha-D-glucopyranoside as substrate after 15 mins by two-fold serial dilution method
HeLa [2] = assay: Cytotoxicity against human HeLa cells by SRB assay; format: functional, cell-based
A549 [3] = assay: Cytotoxicity against human A549 cells at 10 uM by SRB assay; format: functional, cell-based
HepG2 [4] = assay: Cytotoxicity against human HepG2 cells at 10 uM by SRB assay; format: functional, cell-based
[5] = Cytotoxicity against human Chang cells at 10 uM by SRB assay; format: cell-based
[6] = Cytotoxicity against human Chang cells by SRB assay; format: cell-based
HepG2 [7] = assay: Cytotoxicity against human HepG2 cells by SRB assay; format: functional, cell-based
A549 [8] = assay: Cytotoxicity against human A549 cells by SRB assay; format: functional, cell-based
Alpha glucosidase [9] = biological target: T1, Alpha glucosidase; assay: Inhibition of human alpha-glucosidase expressed in Saccharomyces cerevisiae using p-nitrophenyl-alpha-D-glucopyranoside as substrate after 15 mins
HeLa [10] = assay: Cytotoxicity against human HeLa cells at 10 uM by SRB assay; format: functional, cell-based

inhibition (Alpha glucosidase [1]) | IC50 (Alpha glucosidase [9]) [µM] | SMILES | IC50 (HeLa [2]) [µM] | Activity (A549 [3]) | Activity (HepG2 [4]) | Activity [5] | CC50 [6] [µM] | IC50 (HepG2 [7]) [µM] | IC50 (A549 [8]) [µM] | Activity (HeLa [10])
inactive |  | C=CCOc1ccc(-c2cc(OC)c(-c3ccc(OCC=C)cc3)c(OCC=C)c2OC)cc1 | 10.1 | inactive | inactive | Non-Toxic |  |  |  | 
 | 6.67 | COc1cc(-c2ccc(OCCBr)cc2)c(OC)c(OCCBr)c1-c1ccc(O)cc1 | 1.58 |  |  |  | 5.05 | 3.85 | 3.06 | 
 | 25.7 | COc1cc(-c2ccc(O)cc2)c(OC)c(O)c1-c1ccc(O)c(CC=C(C)C)c1 |  | inactive |  |  | 0.91 | 2.74 |  | inactive
 | 8.69 | CCCOc1ccc(-c2cc(OC)c(-c3ccc(O)cc3)c(OCCC)c2OC)cc1 | 0.18 |  |  |  | 0.87 | 0.49 | 0.26 | 
inactive |  | C#CCOc1ccc(-c2cc(OC)c(-c3ccc(OCC#C)cc3)c(OCC#C)c2OC)cc1 |  | inactive | inactive | Non-Toxic |  |  |  | inactive
inactive |  | COc1cc(-c2ccc(OCC=C(C)C)cc2)c(OC)c(O)c1-c1ccc(OCC=C(C)C)cc1 | 2.76 | inactive |  |  | 31.1 | 4.1 |  | 
 | 26.5 | C=CCOc1ccc(-c2cc(OC)c(-c3ccc(O)cc3)c(O)c2OC)cc1 |  | inactive | inactive | Non-Toxic |  |  |  | inactive
 | 16.1 | COc1cc(-c2ccc(OCCBr)cc2)c(OC)c(O)c1-c1ccc(O)cc1 |  | inactive | inactive |  | 95.4 |  |  | inactive
 | 12.2 | COc1cc(-c2ccc(OCc3ccc(-c4ccccc4)cc3)cc2)c(OC)c(O)c1-c1ccc(O)cc1 |  | inactive | inactive |  | 12.7 |  |  | inactive
 | 22.7 | O=C1C=C(c2ccc(O)cc2)C(=O)C(O)=C1c1ccc(O)cc1 |  | inactive | inactive |  | > 100 |  |  | inactive
 | 18 | COc1cc(-c2ccc(O)cc2)c(OC)c(O)c1-c1ccc(OCCBr)cc1 |  | inactive | inactive |  | 54.4 |  |  | inactive
inactive |  | CCCOc1ccc(-c2cc(OC)c(-c3ccc(OCCC)cc3)c(OCCC)c2OC)cc1 |  | inactive | inactive | Non-Toxic |  |  |  | inactive
inactive |  | COc1cc(-c2ccc(OCC=C(C)C)cc2)c(OC)c(OCC=C(C)C)c1-c1ccc(OCC=C(C)C)cc1 |  | inactive | inactive | Non-Toxic |  |  |  | inactive
 | 10.7 | CCCOc1ccc(-c2c(OC)cc(-c3ccc(O)cc3)c(OC)c2OCCC)cc1 |  | inactive | inactive |  | 13.1 |  |  | inactive
 | 14.3 | COc1cc(-c2ccc(OCCC(C)C)cc2)c(OC)c(O)c1-c1ccc(O)cc1 |  | inactive | inactive | Non-Toxic |  |  |  | inactive
 | 31.3 | COc1c(Cl)c(-c2ccc(O)cc2)c(OC)c(O)c1-c1ccc(O)cc1 |  | inactive | inactive | Non-Toxic |  |  |  | inactive
inactive |  | CCCOc1ccc(-c2cc(OC)c(-c3ccc(OCCC)cc3)c(O)c2OC)cc1 |  | inactive | inactive | Non-Toxic |  |  |  | inactive

The next lines start with the molecule.

SMILES | inhibition (Alpha glucosidase [1]) | IC50 (Alpha glucosidase [9]) [µM] | IC50 (HeLa [2]) [µM] | Activity (A549 [3]) | Activity (HepG2 [4]) | Activity [5] | CC50 [6] [µM] | IC50 (HepG2 [7]) [µM] | IC50 (A549 [8]) [µM] | Activity (HeLa [10])
C=CCOc1ccc(-c2cc(OC)c(-c3ccc(OCC=C)cc3)c(O)c2OC)cc1 | inactive |  |  | inactive | inactive | Non-Toxic |  |  |  | inactive
COc1cc(-c2ccc(OCC=C(C)C)cc2)c(OC)c(OCC=C(C)C)c1-c1ccc(O)cc1 |  | 53.1 | 3.37 |  |  |  | 7.34 | 5.26 | 3.36 | 
COc1cc(-c2ccc(OCCN3CCCC3)cc2)c(OC)c(O)c1-c1ccc(O)cc1 |  |  |  | inactive | inactive |  |  |  |  | inactive
COc1cc(-c2ccc(O)cc2)c(OC)c(OC(=O)c2ccc(F)cc2)c1-c1ccc(O)cc1 |  |  |  | inactive | inactive | Non-Toxic |  |  |  | inactive
COc1cc(-c2ccc(O)cc2)c(OC)c(O)c1-c1ccc(OC(c2ccccc2)c2ccccc2)cc1 |  |  |  | inactive | inactive |  | 48.3 |  |  | inactive
COc1cccc2c1C(=O)c1c(O)c3c(c(O)c1C2=O)C[C@@](O)(C(=O)CO)C[C@@H]3O[C@H]1C[C@H](N)[C@H](O)[C@H](C)O1 [DOXORUBICIN HYDROCHLORIDE] |  |  |  |  |  |  |  |  | 0.16 | 
COc1cc(-c2ccc(O)cc2)c(OC)c(OC(=O)c2ccco2)c1-c1ccc(O)cc1 |  | 35.4 |  | inactive | inactive | Non-Toxic |  |  |  | inactive
CCCOc1ccc(-c2c(OC)cc(-c3ccc(O)cc3)c(OC)c2O)cc1 |  | 12.3 |  |  | inactive | Non-Toxic |  |  | 10.3 | inactive
COc1cc(-c2ccc(O)cc2)c(OC)c(OC(C)=O)c1-c1ccc(O)cc1 |  |  |  | inactive | inactive | Non-Toxic |  |  |  | inactive
COc1cc(-c2ccc(OCC(=O)O)cc2)c(OC)c(O)c1-c1ccc(O)cc1 |  |  |  | inactive | inactive |  |  |  |  | inactive
COc1cc(-c2ccc(OCCBr)cc2)c(OC)c(OCCBr)c1-c1ccc(OCCBr)cc1 | inactive |  |  | inactive | inactive | Non-Toxic |  |  |  | inactive
COc1cc(-c2ccc(O)cc2)c(OC)c(OCCN2CCCC2)c1-c1ccc(O)cc1 |  |  |  | inactive | inactive |  |  |  |  | inactive
C=CCOc1c(OC)c(-c2ccc(O)cc2)cc(OC)c1-c1ccc(O)cc1 |  | 83.8 |  | inactive | inactive | Non-Toxic |  |  |  | inactive
COc1cc(-c2ccc(OC(c3ccccc3)c3ccccc3)cc2)c(OC)c(O)c1-c1ccc(O)cc1 |  |  |  | inactive | inactive |  | 22.3 |  |  | inactive
COc1cc(-c2ccc(OCCBr)cc2)c(OC)c(O)c1-c1ccc(OCCBr)cc1 | inactive |  |  | inactive | inactive | Non-Toxic |  |  |  | inactive
